In patent US20060084695A1, “Compositions and treatments for inhibiting kinase and/or HMG-CoA reductase” (priority 2004, published 2006):

Tested on: oxazolone-induced mouse ear swelling
Test: Inhibition of oxazolone-induced mouse ear swelling (topical inflammation model)
Type: in vivo, BALB/c male mice
Conditions: observations made from Table II
Procedure: Left ears were untreated. The thickness of both ears of each animal was measured with a Dyer model micrometer gauge 24 hours after oxazolone challenge, and the net increase in thickness of right ears versus left ears was calculated for each animal. Percent inhibition was calculated according to the formula: [(Iv−It)/Iv]×100, where Iv and It respectively refer to the average net increase in right ear thickness (mm) for vehicle and candidate compound treated mice.

Which “anti-inflammatory activity in ear swelling assay, comparison in words” value does the source give for `CC(C)c1c(C(=O)Nc2ccccc2)c(-c2ccccc2)c(-c2ccc(F)cc2)n1CC[C@@H]1C[C@@H](O)CC(=O)O1` [Atorvastatin lactone, atorvastatin lactone] here?
The value was “most potent anti-inflammatory activity”.
